Test results: US20260206752A1, “MOLECULE HAVING PESTICIDAL UTILITY AND PROCESSES RELATED THERETO” (CORTEVA AGRISCIENCE LLC, priority 2022, published 2026)

Columns and labels:
Meloidogyne incognita [1] = experiment: Root knot nematode comparative bioactivity test at 600 g ai/ha, drench on cucumber seedlings; type: in vivo; settings: 14 days after inoculation, (10−GI)×10
Description: We carried out an experiment to evaluate comparative bioactivity of S1, C1, C2, C3, C4, and C5 against the root knot nematode, Meloidogyne incognita. Each compound was tested at 600 grams of active ingredient per hectare (g ai/ha) and was replicated three times. Cucumber seeds (Cucumis sativus) were planted in a sandy loam soil in 3-inch pots. After six (6) days of planting, the seedlings were treated with the test compounds dissolved in 5% acetone in water by drench application. The plants were inoculated with 4,000 second stage juveniles (J2s) of M. incognita. The inoculated plants were kept in a Greenhouse for 14 days (temperature 27° C.) before evaluating the amount of root damage (galls) called Galling Index (GI) based on a scale of 0-10; where 0=no galls (100% nematode control), and 10=maximum galls (no nematode control). The GI was converted to % nematode control using the formula ((10−GI)×10); where GI=Gall Index. The data were analyzed by Analysis of Variance using JMP (John's Macintosh Project) statistical software and the means were separated using Tukey's HSD (α=0.05).

M. incognita = experiment: Residuality test in soil against root knot nematode; type: in vivo, Meloidogyne incognita; settings: 1250 g ai/ha on bare soil, aged four weeks, then seedlings and 4,000 J2s, evaluated after 14 days
Description: A residuality test was conducted to compare the residual control or persistence of S1, R1, C1, C2, C3, C4, and C5 in soil. Each compound was applied to a bare sandy loam soil (without plant or nematode) in a 3-inch pot at 1250 g ai/ha. The treated soils were kept in a Greenhouse (temperature 27° C.) under regular irrigation for four weeks. At the end of the four weeks, six-day old cucumber (Cucumis sativus) seedlings were transplanted into the treated soil and inoculated with 4,000 second stage juveniles of M. incognita. Each treatment was replicated four times. The inoculated plants were kept in a Greenhouse for 14 days (temperature 27° C.) before evaluating the amount of root damage (galls) called Galling Index (GI) based on a scale of 0-10; where 0=no galls (100% nematode control), and 10=maximum galls (no nematode control). The GI were converted to % control using the formula ((10−GI)×10); where GI=Gall Index. The data were analyzed by Analysis of Variance using JMP (John's Macintosh Project) statistical software and the means were separated using Tukey's HSD (α=0.05).

Meloidogyne incognita [2] = experiment: Root Knot Nematode (RKN) test on cucumber seedlings in pots, Galling Index converted to % control, EC by probit analysis; type: in vivo; settings: RKN EC50
Description: (§1) We conducted an experiment to evaluate comparative bioactivity of S1, R1, and B1 against the root knot nematode (RKN), Meloidogyne incognita. Each of S1, R1, and B1 were tested at six rates: 125, 62.5, 31.25, 15.6, 7.8, 3.9, and 2 ppm. Cucumber seeds (Cucumis sativus) were planted in a sandy loam soil in 3-inch pots. After 6 days of germination, the seedlings were treated with the test compounds dissolved in 5% acetone in water. The treated plants were inoculated with 4,000 second stage juveniles (J2s) of M. incognita. Each experimental unit was replicated three times. The inoculated plants were kept in a Greenhouse for 14 days (about 27° C.) before evaluating the amount of root damage (galls) called Galling Index (GI) based on a scale of 0-10; where 0=no galls (100% control), and 10=maximum galls (no control). The GI was converted to % control using the formula (10−GI)×10; where GI=Gall Index. Effective concentration (EC) values based on the % control of the nematode by S1, R1 and B1 were calculated by probit analysis.

Pratylechus penetrans = experiment: Root Lesion Nematode (RLN) in-vitro mortality test; type: in vivo; settings: RLN LC50
Description: We carried out an in-vitro experiment to compare activity of S1, R1, and B1 with each other against the root lesion nematode (RLN), Pratylechus penetrans. Each of S1, R1, and B1 were tested at six rates: 62.5, 15.6, 4, 1, 0.25, and 0 ppm (UTC) with three replications of each treatment. Equal volume of nematode suspension was added to an equal volume of each of S1, R1, and B1 dissolved in 0.5% DMSO (dimethyl sulfoxide) in water in 25 mL vials. The treated nematode suspension was incubated at room temperature (about 25° C.) on a shaker (95 RPM). Aliquots of 1 mL of the nematode suspension was evaluated under a microscope for mortality after 48 hours. RLN were counted, and the number of dead and active nematodes was used to calculate % mortality from which lethal concentration (LC) values were generated.

[3] = system: root knot nematode, soybean cyst nematode, root lesion nematode; experiment: Average of Delta % over the RKN, SCN and RLN tests of Example One; type: in vivo
Description: as §1, with “The GI was converted to % control using the formula (10−GI)×10; where GI=Gall Index.” left out, “analysis. […]” for “analysis.”
We carried out an in-vitro experiment to compare activity of S1, R1, and B1 with each other against the root lesion nematode (RLN), Pratylechus penetrans. […] Aliquots of 1 mL of the nematode suspension was evaluated under a microscope for mortality after 48 hours. RLN were counted, and the number of dead and active nematodes was used to calculate % mortality from which lethal concentration (LC) values were generated.

[4] = system: Heterodera glycines second stage juveniles (J2); experiment: Soybean Cyst Nematode (SCN) in-vitro mortality test; type: in vivo; settings: SCN LC50
Description: We carried out an in-vitro experiment to compare activity of S1, R1, and B1 with each other against the soybean cyst nematode (SCN): Heterodera glycines second stage juveniles (J2). Each of S1, R1, and B1 were tested at six rates: 62.5, 15.6, 4, 1, 0.25, and 0 ppm (untreated control, UTC with three replications of each treatment. Equal volume of nematode suspension was added to an equal volume of compound dissolved in 0.5% DMSO (dimethyl sulfoxide) in water. The nematode plus compound was incubated at room temperature (about 25° C.) on a shaker at 95 revolutions per minutes (RPM). Aliquots of 0.5 milliliters (mL) of the nematode suspension were evaluated under a microscope for mortality after 48 hours of incubation. SCN J2s were counted, and the number of dead and active nematodes was used to calculate % SCN mortality which was used to generate lethal concentration (LC) values by probit analysis.

Row | SMILES | Mean Percent Control (Meloidogyne incognita [1]) [%] | Mean Percent Control (M. incognita) [%] | Delta % vs B1 (Meloidogyne incognita [2]) [%] | Delta % vs B1 (Pratylechus penetrans) [%] | Delta % on average, S1 versus B1 [3] [%] | Delta % vs B1 [4] [%]
1 | C[C@H](NC(=O)c1ccoc1Cl)C(C)(C)C [Molecule C1] | 54 | 27.5 | – | – | – | –
2 | CCC(CC)[C@H](C)NC(=O)c1ccoc1Cl [Molecule S1, (S)-2-chloro-N-(3-ethylpentan-2-yl)furan-3-carboxamide] | – | – | 240 | 259 | 564 | 1194
